The record followed here is patent publication US20200360455A1 (priority 2018, published 2020).

The test system of the experiment is Old mice. Nature of the experiment: Wire hang test. It is filed as in vivo, mouse. The settings on record: creatine 120 mg/kg. How it is done:
The test was performing using a wire having a diameter of 2 mm installed at a height of 25 cm. Each mouse was placed on the wire using only the front legs, and the time of hanging without falling was measured. The time when the mouse was suspended and then dropped was measured and the test was conducted for a maximum of 120 seconds. In this way, each mouse was repeated 3 times at approximately 20 minute intervals. The results of each mouse were analyzed for the average value of the first and longest hanging time in three trials. […] In addition, creatine 120 mg/kg (creatine-120) was administered to mice as a positive control, and the test was conducted under the same conditions.

Take `CN(CC(=O)O)C(=N)N` [creatine]: the “wire hang effect of positive control vs aging mouse group” value is recorded as “more effective than the aging mouse group”.
